Source: patent US8431597B2, “Benzimidazole derivatives” (Pfizer Inc., priority 2007, dated 2013)
Where a name gives a salt, the structure may show the parent alone.

Target: T1, Smoothened (SMO) (Mus musculus, UniProt P56726)
T1 construct: C3H10T1/2 cells (ATCC #CCL-226) were split and seeded; endogenous in cells; host or cells: C3H10T1/2 (ATCC #CCL-226)
Assay: Smoothened (SMO)/Sonic Hedgehog (SHh) Transient Transcriptional Activation Assay (Gli-luciferase reporter in C3H10T1/2 cells)
Type: cell-based, murine
Conditions: C3H 10T1/2, 2 μM compound; transfected C3H10T1/2 cells, recombinant human SHh 250 ng/mL, 20 hours, luciferase readout; read-out: SMO CELL % INHIBITION @ 2 μM
Method in brief: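 C3H10T1/2 cells transiently transfected with a murine Gli-responsive firefly luciferase reporter plus pEGFP were serum-starved 20 h in 0.5% calf serum. Compound (2 μM to 2 nM final) was added with recombinant human SHh at 250 ng/mL final for 20 h at 37 °C. Read-out was Dual-Glo luminescence.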

T1 sequence (P56726 33-793): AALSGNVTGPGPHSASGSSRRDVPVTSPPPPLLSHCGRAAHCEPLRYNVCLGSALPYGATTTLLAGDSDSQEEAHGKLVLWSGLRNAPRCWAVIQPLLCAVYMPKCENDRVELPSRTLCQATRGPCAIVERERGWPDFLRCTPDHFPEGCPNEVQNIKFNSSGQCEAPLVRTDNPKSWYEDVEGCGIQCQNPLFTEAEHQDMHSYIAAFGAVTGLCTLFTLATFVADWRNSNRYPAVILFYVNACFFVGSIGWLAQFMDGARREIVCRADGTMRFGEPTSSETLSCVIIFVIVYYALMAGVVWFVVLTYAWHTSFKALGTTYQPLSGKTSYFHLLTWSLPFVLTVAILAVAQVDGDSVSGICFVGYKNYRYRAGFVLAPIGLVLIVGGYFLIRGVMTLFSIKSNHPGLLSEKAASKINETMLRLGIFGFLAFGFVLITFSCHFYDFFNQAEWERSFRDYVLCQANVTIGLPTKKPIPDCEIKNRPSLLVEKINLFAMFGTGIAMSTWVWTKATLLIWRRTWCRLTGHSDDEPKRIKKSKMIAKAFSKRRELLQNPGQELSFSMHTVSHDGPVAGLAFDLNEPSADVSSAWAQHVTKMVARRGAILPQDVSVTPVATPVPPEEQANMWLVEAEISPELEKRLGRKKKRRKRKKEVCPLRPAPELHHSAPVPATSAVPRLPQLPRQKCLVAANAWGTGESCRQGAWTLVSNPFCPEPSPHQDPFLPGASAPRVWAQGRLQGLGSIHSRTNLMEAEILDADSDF

Structure (SMILES)	inhibition at 2 µM [%]
COc1ccc(C(=O)N[C@@H]2CCN(C)[C@@H](c3nc4ccccc4[nH]3)C2)cc1 [Example 111, N-[(2R,4R)-2-(1H-benzimidazol-2-yl)-1-methylpiperidin-4-yl]-4-methoxybenzamide trifluoroacetate]	83.2
CN1CC[C@@H](NC(=O)c2cc3ccccc3n2C)C[C@@H]1c1nc2ccccc2[nH]1 [Example 113, N-[(2R,4R)-2-(1H-benzimidazol-2-yl)-1-methylpiperidin-4-yl]-1-methyl-1H-indole-2-carboxamide trifluoroacetate]	76.1
CN1CC[C@@H](NC(=O)c2cnn3ccccc23)C[C@@H]1c1nc2ccccc2[nH]1 [Example 115, N-[(2R,4R)-2-(1H-benzimidazol-2-yl)-1-methylpiperidin-4-yl]pyrazolo[1,5-a]pyridine-3-carboxamide trifluoroacetate]	69.6
CN1CC[C@@H](NC(=O)c2ccc3nonc3c2)C[C@@H]1c1nc2ccccc2[nH]1 [Example 119, N-[(2R,4R)-2-(1H-benzimidazol-2-yl)-1-methylpiperidin-4-yl]-2,1,3-benzoxadiazole-5-carboxamide trifluoroacetate]	64.5
CN1CC[C@@H](NC(=O)c2ccc(C#N)cc2)C[C@@H]1c1nc2ccccc2[nH]1 [Example 121, N-[(2R,4R)-2-(1H-benzimidazol-2-yl)-1-methylpiperidin-4-yl]-4-cyanobenzamide trifluoroacetate]	62.3
Cc1cc(C(=O)N[C@@H]2CCN(C)[C@@H](c3nc4ccccc4[nH]3)C2)n(C(C)(C)C)n1 [Example 124, N-[(2R,4R)-2-(1H-benzimidazol-2-yl)-1-methylpiperidin-4-yl]-1-tert-butyl-3-methyl-1H-pyrazole-5-carboxamide trifluoroacetate]	50.6
O=C(N[C@@H]1CCN(C2CC2)[C@@H](c2nc3ccccc3[nH]2)C1)c1ccc2c(c1)OCCO2 [Example 125, N-[(2R,4R)-2-(1H-benzimidazol-2-yl)-1-cyclopropylpiperidin-4-yl]-2,3-dihydro-1,4-benzodioxine-6-carboxamide hydrochloride]	102
Cc1ccc(NC(=O)N[C@@H]2CCN(C)[C@@H](c3nc4ccc(Cl)cc4[nH]3)C2)cn1 [Example 126, 1-[(2R,4R)-2-(6-chloro-1H-benzimidazol-2-yl)-1-methylpiperidin-4-yl]-3-(6-methylpyridin-3-yl)urea hydrochloride]	110
Cc1ccc(NC(=O)N[C@@H]2CCN(C)[C@@H](c3nc4cc(C#N)ccc4[nH]3)C2)cn1 [Example 127, 1-[(2R,4R)-2-(5-cyano-1H-benzimidazol-2-yl)-1-methylpiperidin-4-yl]-3-(6-methylpyridin-3-yl)urea hydrochloride]	103
Cc1ccc(NC(=O)N[C@@H]2CCN(C)[C@@H](c3nc4cc(C(F)(F)F)ccc4[nH]3)C2)cn1 [Example 128, 1-(6-methylpyridin-3-yl)-3-{(2R,4R)-1-methyl-2-[5-(trifluoromethyl)-1H-benzimidazol-2-yl]piperidin-4-yl}urea hydrochloride]	102
COc1ccc2[nH]c([C@H]3C[C@H](NC(=O)Nc4ccc(C)nc4)CCN3C)nc2c1 [Example 129, 1-[(2R,4R)-2-(5-methoxy-1H-benzimidazol-2-yl)-1-methylpiperidin-4-yl]-3-(6-methylpyridin-3-yl)urea hydrochloride]	104
Cc1ccc2[nH]c([C@H]3C[C@H](NC(=O)Nc4ccc(C)nc4)CCN3C)nc2c1 [Example 130, 1-[(2R,4R)-1-methyl-2-(5-methyl-1H-benzimidazol-2-yl)piperidin-4-yl]-3-(6-methylpyridin-3-yl)urea hydrochloride]	106
Cc1ccc(NC(=O)N[C@@H]2CCN(C)[C@@H](c3nc4cc(C)c(C)cc4[nH]3)C2)cn1 [Example 131, 1-[(2R(4R)-2-(5,6-dimethyl-1H-benzimidazol-2-yl)-1-methylpiperidin-4-yl]-3-(6-methylpyridin-3-yl)urea hydrochloride]	105
Cc1ccc(NC(=O)N[C@@H]2CCN(C)[C@@H](c3nc4ccc(F)cc4[nH]3)C2)cn1 [Example 132, 1-[(2R,4R)-2-(6-fluoro-1H-benzimidazol-2-yl)-1-methylpiperidin-4-yl]-3-(6-methylpyridin-3-yl)urea hydrochloride]	108
COc1ccc(NC(=O)N[C@@H]2CCN(C)[C@@H](c3nc4ccc(Cl)cc4[nH]3)C2)cn1 [Example 133, 1-[(2R,4R)-2-(6-chloro-1H-benzimidazol-2-yl)-1-methylpiperidin-4-yl]-3-(6-methoxypyridin-3-yl)urea hydrochloride]	108
COc1ccc(NC(=O)N[C@@H]2CCN(C)[C@@H](c3nc4cc(C#N)ccc4[nH]3)C2)cn1 [Example 134, 1-[(2R,4R)-2-(5-cyano-1H-benzimidazol-2-yl)-1-methylpiperidin-4-yl]-3-(6-methoxypyridin-3-yl)urea hydrochloride]	105
COc1ccc(NC(=O)N[C@@H]2CCN(C)[C@@H](c3nc4cc(C(F)(F)F)ccc4[nH]3)C2)cn1 [Example 135, 1-(6-methoxypyridin-3-yl)-3-{(2R,4R)-1-methyl-2-[5-(trifluoromethyl)-1H-benzimidazol-2-yl]piperidin-4-yl}urea hydrochloride]	104
COc1ccc2[nH]c([C@H]3C[C@H](NC(=O)Nc4ccc(OC)nc4)CCN3C)nc2c1 [Example 136, 1-[(2R,4R)-2-(5-methoxy-1H-benzimidazol-2-yl)-1-methylpiperidin-4-y)]-3-(6-methoxypyridin-3-yl)urea hydrochloride]	106
COc1ccc(NC(=O)N[C@@H]2CCN(C)[C@@H](c3nc4cc(C)ccc4[nH]3)C2)cn1 [Example 137, 1-{6-methoxypyridin-3-yl)-3-[(2R.4R)-1-methyl-2-(5-methyl-1H-benzimidazol-2-yl)piperidin-4-yl]urea hydrochloride]	102

Next, values leading:

inhibition at 2 µM [%]	Structure (SMILES)
88.3	CSc1ccccc1C(=O)N[C@@H]1CCN(C)[C@@H](c2nc3ccccc3[nH]2)C1 [Example 107, N-[(2R,4R)-2-(1H-benzimidazol-2-yl)-1-methylpiperidin-4-yl]-2-(methylthio)benzamide trifluoroacetate]
86.4	CN1CC[C@@H](NC(=O)Cn2cc3ccccc3n2)C[C@@H]1c1nc2ccccc2[nH]1 [Example 108, N-[(2R,4R)-2-(1H-benzimidazol-2-yl)-1-methylpiperidin-4-yl]-2-(2H-indazol-2-yl)acetamide trifluoroacetate]
85.2	CN1CC[C@@H](NC(=O)Cn2ncc3ccccc32)C[C@@H]1c1nc2ccccc2[nH]1 [Example 109, N-[(2R,4R)-2-(1H-benzimidazol-2-yl)-1-methylpiperidin-4-yl]-2-(1H-indazol-1-yl)acetamide trifluoroacetate]
83.2	CN1CC[C@@H](NC(=O)Cc2ccccc2)C[C@@H]1c1nc2ccccc2[nH]1 [Example 110, N-[(2R,4R)-2-(1H-benzimidazol-2-yl)-1-methylpiperidin-4-yl]-2-phenylacetamide trifluoroacetate]
81.7	COc1cccc(C(=O)N[C@@H]2CCN(C)[C@@H](c3nc4ccccc4[nH]3)C2)c1 [Example 112, N-[(2R,4R)-2-(1H-benzimidazol-2-yl)-1-methylpiperidin-4-yl]-3-methoxybenzamide trifluoroacetate]
75.5	CN1CC[C@@H](NC(=O)Cc2nc3ccccc3o2)C[C@@H]1c1nc2ccccc2[nH]1 [Example 114, N-[(2R,4R)-2-(1H-benzimidazol-2-yl)-1-methylpiperidin-4-yl]-2-(1,3-benzoxazol-2-yl)acetamide trifluoroacetate]
68.2	CN1CC[C@@H](NC(=O)Cc2ccc3c(c2)CCO3)C[C@@H]1c1nc2ccccc2[nH]1 [Example 116, N-[(2R,4R)-2-(1H-benzimidazol-2-yl)-1-methylpiperidin-4-yl]-2-(2,3-dihydro-1-benzofuran-5-yl)acetamide trifluoroacetate]
65.4	COc1ccc(C(=O)N[C@@H]2CCN(C)[C@@H](c3nc4ccccc4[nH]3)C2)cc1F [Example 117, N-[(2R,4R)-2-(1H-benzimidazol-2-yl)-1-methylpiperidin-4-yl]-3-fluoro-4-methoxybenzamide trifluoroacetate]
65.1	Cc1cccc2cc(C(=O)N[C@@H]3CCN(C)[C@@H](c4nc5ccccc5[nH]4)C3)nn12 [Example 118, N-[(2R,4R)-2-(1H-benzimidazol-2-yl)-1-methylpiperidin-4-yl]-7-methylpyrazolo[1,5-a]pyridine-2-carboxamide trifluoroacetate]
63.7	CN1CC[C@@H](NC(=O)Cc2ccccc2F)C[C@@H]1c1nc2ccccc2[nH]1 [Example 120, N-[(2R,4R)-2-(1H-benzimidazol-2-yl)-1-methylpiperidin-4-yl]-2-(2-fluorophenyl)acetamide trifluoroacetate]
57.5	CN1CC[C@@H](NC(=O)C(F)(F)c2ccccc2)C[C@@H]1c1nc2ccccc2[nH]1 [Example 122, N-[(2R,4R)-2-(1H-benzimidazol-2-yl)-1-methylpiperidin-4-yl]-2(2-difluoro-2-phenylacetamide trifluoroacetate]
52.2	CN1CC[C@@H](NC(=O)Cc2cccc(F)c2)C[C@@H]1c1nc2ccccc2[nH]1 [Example 123, N-[(2R,4R)-2-(1H-benzimidazol-2-yl)-1-methylpiperidin-4-yl]-2-(3-fluorophenyl)acetamide trifluoroacetate]
